Experimental data taken from US20090291975A1, “DUAL OPIOID PAIN THERAPY” (priority 2008, published 2009).

System: patients following bunionectomy surgery (acute pain)
Assay: Study 4: opioid adverse events at morphine equivalent doses, bunionectomy study
Conditions: morphine equivalent 12 mg, q6h, 48 hr

Compound | Adverse Events (%): Constipation - moderate/severe | Adverse Events (%): Constipation mild/mod/severe | Adverse Events (%): Dizziness - moderate/severe | Adverse Events (%): Dizziness mild/mod/severe | Adverse Events (%): Nausea - moderate/severe | Adverse Events (%): Nausea mild/mod/severe | Adverse Events (%): Vomiting - moderate/severe | Adverse Events (%): Vomiting mild/mod/severe | Dropouts (%)
CN1CC[C@]23c4c5ccc(O)c4O[C@H]2[C@@H](O)C=C[C@H]3[C@H]1C5 [Morphine, morphine] | 10% | 10% | 7% | 31% | 28% | 59% | 21% | 21% | 7%
COc1ccc2c3c1O[C@H]1C(=O)CC[C@@]4(O)[C@@H](C2)N(C)CC[C@]314 [Oxycodone, oxycodone] | 6% | 6% | 12% | 24% | 26% | 50% | 21% | 21% | 12%
